According to patent US11261425B2, “Method for inducing differentiation of pluripotent stem cells into neural precursor cells” (Kyoto University, priority 2009, dated 2022):

What was measured:
Type in all cases: cell-based, Human
iPS cells (G4) = assay: Differentiation of iPS cells into neural precursor cells on PA6 feeder cells (SDIA method), immunostaining; details: day 14, PA6 feeder cells; for Nestin and Oct3/4 immunostaining of colonies: 2 μM Dorsomorphin and/or 10 μM SB431542
Experimental: Human ES cells (KhES-1, KhES-2, and KhES-3) from the Institute for Frontier Medical Sciences, Kyoto University were provided, and they were then cultured by the known method (Suemori H, et al. Biochem Biophys Res Commun. 345: 926-32, 2006). Human iPS cells (G1, G4, B6, and B7) were provided by Dr. Yamanaka of Kyoto University and then cultured by the known method (Takahashi K, et al. Cell. 131: 861-72, 2007 and Nakagawa M, et al. Nat Biotechnol. 26: 101-6, 2008). PA6 cells (RIKEN BRC Cell Bank) were seeded on a gelatin-coated dish and then cultured using MEM alpha containing 10% FBS. Upon induction of differentiation, cells were cultured for at least one day, confirmed to be confluent, and then used as feeder cells. Human iPS cells (404C2) was established by introducing reprogramming factors (OCT3/4, SOX2, KLF4, L-MYC, LIN28, and shRNA for p53) into human fibroblast using a vector containg EBNA-1 and oriP (U.S. 61/232,402 and U.S. 61/307,306), then cultured by same method of other human iPS cells.
ES cells or iPS cells were cultured using STO cells as feeder cells. One day before the initiation of differentiation induction, 10 μM ROCK inhibitor (Y27632) was added into a medium. CTK dissociation solution (0.25% Trypsin, 1 mg/ml Collagenase and KSR 20%, and 1 mM CaCl2) was added at 500 μl/10 cm dish, followed by 3 to 5 minutes of incubation at 37° C. The dish was gently tapped to remove feeder cells. After washing once with PBS, the CTK dissociation solution was added again, followed by 10-15 minutes of incubation at 37° C. ES cells or iPS cells detached from the dish were suspended in 5 ml of differentiation medium (DMEM/Ham's F12 containing 5% knockout serum replacement (KSR), 2 mM L-glutamine, non-essential amino acids, and 1 μM 2-mercaptoethanol (2-ME)). After centrifugation, supernatants were removed. Again, the cells were suspended in 1 ml of the differentiation medium and then separated from each other by pipetting, so as to result in small aggregates (10-20 cells/clump).
The obtained small aggregates were seeded on dishes having PA6 as feeder cells at concentrations ranging from 2500 to 5000 cells/cm^2. As a medium, a differentiation medium containing 2 μM Dorsomorphin (Sigma) and/or 10 μM SB431542 (Sigma) and/or 300 ng/ml Noggin (HZ-1026: HumanZyme) or 2 μl/well DMSO was used. 10 μM Y27632 was added only in the initial culture. Medium exchange was not performed until day 7, and it was then performed once every 3 to 4 days.
On day 14 after differentiation induction, cells were fixed with 4% PFA for 30 minutes at 4° C. and then immunostained in PBS with each antibody listed in Table 1.

[1] = test system: KhES-1, KhES-2, KhES-3, G1, G4, B6, and B7; assay: SDIA method, colony counts per well in 7 ES/iPS cell lines; details: day 14, 7 cell lines; for Number of colonies per well compared with control group or Noggin group: n=28
Experimental: When at least one positive cell could be confirmed within a colony, such colony was counted as a positive colony. […] Biochem Biophys Res Commun. 345: 926-32, 2006). Human iPS cells (G1, G4, B6, and B7) were provided by Dr. Yamanaka of Kyoto University and then cultured by the known method (Takahashi K, et al. Cell. 131: 861-72, 2007 and Nakagawa M, et al. Nat Biotechnol. 26: 101-6, 2008). PA6 cells (RIKEN BRC Cell Bank) were seeded on a gelatin-coated dish and then cultured using MEM alpha containing 10% FBS. Upon induction of differentiation, cells were cultured for at least one day, confirmed to be confluent, and then used as feeder cells. […] ES cells or iPS cells were cultured using STO cells as feeder cells. One day before the initiation of differentiation induction, 10 μM ROCK inhibitor (Y27632) was added into a medium. […] The dish was gently tapped to remove feeder cells. After washing once with PBS, the CTK dissociation solution was added again, followed by 10-15 minutes of incubation at 37° C. ES cells or iPS cells detached from the dish were suspended in 5 ml of differentiation medium (DMEM/Ham's F12 containing 5% knockout serum replacement (KSR), 2 mM L-glutamine, non-essential amino acids, and 1 μM 2-mercaptoethanol (2-ME)). After centrifugation, supernatants were removed. Again, the cells were suspended in 1 ml of the differentiation medium and then separated from each other by pipetting, so as to result in small aggregates (10-20 cells/clump). The obtained small aggregates were seeded on dishes having PA6 as feeder cells at concentrations ranging from 2500 to 5000 cells/cm^2. As a medium, a differentiation medium containing 2 μM Dorsomorphin (Sigma) and/or 10 μM SB431542 (Sigma) and/or 300 ng/ml Noggin (HZ-1026: HumanZyme) or 2 μl/well DMSO was used. 10 μM Y27632 was added only in the initial culture. Medium exchange was not performed until day 7, and it was then performed once every 3 to 4 days. On day 14 after differentiation induction, cells were fixed with 4% PFA for 30 minutes at 4° C. and then immunostained in PBS with each antibody listed in Table 1. […]

[2] = test system: KhES-1 cell line and KhES-4 cell line; assay: Optimal concentration of LDN-193189 with SB431542 (SDIA method), KhES-1 and KhES-4; details: day 14, with SB431542, PA6 cells
Experimental: (§1) On one day before the initiation of differentiation induction, CTK dissociation solution (0.25% Trypsin, 1 mg/ml Collagenase and KSR 20%, and 1 mM CaCl2) was added to ES cells (KhES-1, KhES-4, and KhES-5), colonies were dissociated. ES cells detached from the dish were subjected to removal of MEF on gelatin coating, suspended in a differentiation medium (DMEM/Ham's F12 containing 5% knockout serum replacement (KSR), 2 mM L-glutamine, non-essential amino acids, and 1 μM 2-mercaptoethanol (2-ME)) for 1 hour, and then separated by pipetting so as to result in small aggregates (10-20 cells/clump). The obtained small aggregates were seeded on PA6 at a concentration ranging from 2500 to 5000 cells/cm^2. On day 4 of culture, the medium was exchanged with a differentiation medium supplemented with 10 μM SB431542 and 5-1,000 nM LDN-193189. Three days later, the medium was exchanged with a differentiation medium without SB431542 and LDN-193189. Thereafter, medium exchanges with such a differentiation medium without SB431542 and LDN-193189 were performed at 2- to 3-day intervals.
Human ES cells (KhES-1, KhES-4, and KhES-5) were subjected to differentiation induction performed by a stromal cell-derived inducing activity method (SDIA method) using LDN-193189 at a concentration ranging from 5 nM to 1000 nM, in order to determine an optimal concentration of LDN-193189.

KhES-5 cells = assay: Optimal concentration of LDN-193189 with SB431542 (SDIA method), KhES-5; details: day 14, with SB431542, PA6 cells
Experimental: Differentiation was induced by co-culturing an ES cell line (Kh-ES5) with PA6 cells according to the SDIA method, then culturing the cells in a medium supplemented with 5-500 nM LDN-193189 and SB431542.
as §1, with “intervals. […]” for “intervals.”

| Compound | Immunostaining for undifferentiation markers Nanog or SSEA3 and neural markers Pax6 or PSA-NCAM (iPS cells (G4)) | Nestin and Oct3/4 immunostaining of colonies (iPS cells (G4)) | Number of colonies per well compared with control group or Noggin group [1] | Concentration of LDN-193189 at which cells were stained to the highest degree with Pax6 [2] [nM] | Concentration of LDN-193189 at which differentiation into neural precursor cells was induced relatively successfully (Nestin staining) (KhES-5 cells) [nM] | Increase of effect at LDN-193189 concentration higher than 50 nM (KhES-5 cells) | Elimination of undifferentiated cells (Nestin-positive vs Oct3/4-positive colonies) [1] |
| --- | --- | --- | --- | --- | --- | --- | --- |
| c1cc(-c2cnn3cc(-c4ccc(OCCN5CCCCC5)cc4)cnc23)ccn1 [Dorsomorphin, 6-[4-(2-piperidin-1-yl-ethoxy)phenyl]-3-pyridin-4-yl-pyrazolo[1,5-a]pyrimidine] | undifferentiated cells and neural precursor cells coexisted | colonies positive for both Nestin and Oct3/4 were confirmed | significantly higher |  |  |  |  |
| c1ccc2c(-c3cnn4cc(-c5ccc(N6CCNCC6)cc5)cnc34)ccnc2c1 [LDN-193189, 4-(6-(4-(piperazin-1-yl)phenyl)pyrazolo[1,5-a]pyrimidin-3-yl)quinoline] |  |  |  | 20 | ≥ 50 | not observed that the effect was increased |  |
| NC(=O)c1ccc(-c2nc(-c3ccc4c(c3)OCO4)c(-c3ccccn3)[nH]2)cc1 [SB431542, 4-[4-(1,3-benzodioxol-5-yl)-5-(2-pyridinyl)-1H-imidazol-2-yl]benzamide] | neural precursor cells appeared in aggregated cell populations | aggregated cell populations were positive for Nestin | significantly higher |  |  |  | effective in elimination of undifferentiated cells |
